According to patent US20250205385A1, “SILICONE MATERIAL, SILICONE TUBE, IMPLANT, PHARMACEUTICAL COMPOSITION, AND TEST METHOD FOR AMOUNT OF DRUG RELEASED” (SHENYANG XINGHUA PHARMACEUTICAL TECHNOLOGY CO., LTD, priority 2022, published 2025):
Converted amounts (≈) assume the structure as drawn. Where two headings read alike, the source gives them in different places.

Experiments:
[1] = Equilibrium solubility of gestodene bulk drug in water and normal saline, before and after micronization; format: physicochemical; conditions: thermodynamic from solid, shaken 72 hours
Method: The prepared implant needs to be implanted in the subcutaneous tissue of the human upper arm, where the pH is close to neutral. Therefore, the release medium can be either water or normal saline. A supersaturated solution of the gestodene bulk drug in water and normal saline, both before and after micronization, was prepared. The solution was placed in a shaker and shaken for 72 hours. After shaking, the mixture was taken out and centrifuged, and the supernatant was filtered. The equilibrium solubility of the gestodene bulk drug in water and normal saline, both before and after micronization, was determined using high performance liquid chromatography. Based on the results, the appropriate release medium was selected.
In vitro release experiments were conducted on implants with different silicone tube wall thicknesses, medicinal core side areas, and drug particle sizes. Based on the in vitro release results, long-acting contraceptive implants with a daily drug release of 10-30 μg were prepared. The prepared implant was implanted in the subcutaneous tissue of the human upper arm, where the pH was close to neutral, allowing the release medium to be chosen between water and normal saline. A supersaturated solution of the gestodene bulk drug in water and normal saline, both before and after micronization, was prepared. The solution was placed in a shaker and shaken for 72 hours. After shaking, the mixture was taken out and centrifuged, and the supernatant was filtered. The equilibrium solubility of the gestodene bulk drug in water and normal saline, both before and after micronization, was determined using high performance liquid chromatography. Based on the results, the appropriate release medium was selected. Water was selected as the release medium for the in vitro release experiments. In the following experiments to investigate the in vitro release amount, the implant from Example 27 was subjected to depowdering pre-treatment, which involved adding 50 mL of anhydrous ethanol to a conical flask containing the implant, followed by ultrasonication for 1 minute. This process was repeated three times, after which 100 mL of distilled water was added and left overnight. The next day, the soaking solution was discarded, and the implant was placed in a shaker for in vitro release.

[2] = cited from earlier work
[3] = cited from earlier work; for Solubility: in water

Row | Compound | solubility at 72 h ([1]; normal saline, saline or isotonic, drug particle size 2.81 μm (micronized), normal saline (NS)) [µg/mL] | solubility at 72 h ([1]; normal saline, saline or isotonic, drug particle size 80.30 μm (unmicronized), normal saline (NS)) [µg/mL] | solubility at 72 h ([1]; water or normal saline, drug particle size 2.81 μm (micronized), water) [µg/mL] | solubility at 72 h ([1]; water or normal saline, drug particle size 80.30 μm (unmicronized), water) [µg/mL] | bioavailability ([2]; background statement) [%] | daily release sufficient to produce a contraceptive effect ([2]; humans, review of the literature) [µg] | Solubility ([3]; bulk drug) [µg/mL] | LogP ([3]; bulk drug) | solubility in water [3] [µg/mL] | pKa ([3]; bulk drug) | pKa [3]
1 | C#C[C@]1(O)C=C[C@H]2[C@@H]3CCC4=CC(=O)CC[C@@H]4[C@H]3CC[C@@]21CC [gestodene] | 2.71 ± 0.24 (≈ 8.73 µM) | 5.3 ± 0.58 (≈ 17.1 µM) | 4.11 ± 0.52 (≈ 13.2 µM) | 5.64 ± 0.62 (≈ 18.2 µM) | ~100 | 10 to 20 | – | – | – | – | –
2 | CC(C)Cc1ccc(C(C)C(=O)O)cc1 (stereo not shown) [ibuprofen] | – | – | – | – | – | – | 60 (≈ 291 µM) | 3.72 | 60 (≈ 291 µM) | – | –
3 | Cc1cnc(NC(=O)C2=C(O)c3ccccc3S(=O)(=O)N2C)s1 [meloxicam] | – | – | – | – | – | – | 3.4 (≈ 9.68 µM) | 3.35 | 3.4 (≈ 9.68 µM) | 4 | 4
4 | Cc1nc2n(c(=O)c1CCN1CCC(c3noc4cc(F)ccc34)CC1)CCCC2O (stereo not shown) [paliperidone] | – | – | – | – | – | – | – | 3.02 | – | 7.72 | 7.72
5 | O=c1c(-c2ccc(O)cc2)coc2c([C@@H]3O[C@H](CO)[C@@H](O)[C@H](O)[C@H]3O)c(O)ccc12 [puerarin] | – | – | – | – | – | – | 4000 (≈ 9610 µM) | −0.67 | 4000 (≈ 9610 µM) | 6.45 | 6.45
